Test system: patients with advanced solid tumors
Test: Phase 1 trial: adverse events (CTCAE), DLT and MTD
Type: in vivo, human
Protocol: The phase 1 trial was a two-part, multicenter, open-label, nonrandomized study to evaluate the safety and preliminary efficacy of HA121-28.
Safety, tolerability, and PK of HA121-28 was assessed in dose-escalation part. The single-patient accelerated titration was carried out at 25 mg and 50 mg; then, the dose escalation proceeded according to a “3 + 3” design in dose range of 100 to 800 mg. Escalation to a higher dose level was considered by the satisfactory review of safety results from the previous lower dose during the first cycle.
The dose-expansion part aims to further access the safety and efficacy of HA121-28 at the selected doses based on data from the dose-escalation part. The RP2D was determined by investigators in view of a thorough review of safety, PK, and efficacy results.
In phase 1 trial, during the dose-escalation part, patients first administered HA121-28 in a single ascending dose under the fasted state, then followed up for seven days. Then, patients received ascending doses of HA121-28 (q.d.) on a 21-day on and 7-day off treatment scheme for a 28-day cycle. For patients deemed beneficial from the treatment by investigators, treatment could remain until disease progression, or they discontinued from the study. In the dose-expansion part of phase 1, as well as phase 2, patients received HA121-28 (q.d.) at the selected doses on a 21-day on and 7-day off treatment scheme until disease progression, or they discontinued from the study.
Treatment-emergent adverse events (TEAEs) were documented during the entire study period. The predefined adverse event of special interest (AESI) was ≥ grade 3 prolonged QT interval. Tumor imaging was performed using contrast-enhanced computed tomography or magnetic resonance imaging at screening, Day 28 of the first cycle, then approximately every eight weeks till the end of the study for phase 1; in phase 2, imaging was scheduled at screening, and every eight weeks during the first 40 weeks, followed by every 12 weeks for the rest of the study period. RECIST 1.1 was used by the independent review committee or investigators for assessment of tumor response. After the original assessment, a repeated assessment was required around four weeks later to confirm a complete or partial response.
The primary endpoints of phase 1 were to investigate the MTD, dose-limiting toxicities, and the incidence and severity of TEAEs. Each TEAE was graded according to the Common Terminology Criteria for Adverse Events (CTCAE, version 5.0) and coded by Medical Dictionary for Regulatory Activities (MedDRA, version 21.0). The secondary endpoints included calculating PK parameters, assessing the ORR and DCR at the recommended dose by investigators as per RECIST 1.1. The exploratory endpoint was PFS.
If grade 2 or higher toxicity related to the study drug occurs in Groups 1 and 2 (as determined by the investigator), dose escalation will proceed using a 3+3 design starting from that dose level. If no DLT is observed at the 800 mg/d dose level after dose escalation, a meeting of investigators will be convened to decide whether to proceed with further dose escalation based on the available PK data, safety, and tolerability information.
5. Definition of DLT and MTD
The following events related to the study drug (including those that are definitely related, highly likely to be related, and possibly related):
(1) Grade 4 hematologic toxicity or grade 3 neutropenia accompanied by a fever of 38.5℃ or higher, or grade 3 thrombocytopenia accompanied by severe bleeding.
(2) Patients who discontinued the medication for more than 7 days due to unresolved toxicity reactions or who discontinued the medication more than twice due to toxicity […]
(3) In the context of supportive treatment, diarrhea of grade 2 lasting more than 7 days, or grade 3 diarrhea lasting more than 3 days.

COc1cc2c(Nc3ccc(Br)cc3F)ncnc2cc1OCCCCN(C)C.Cl.Cl [HA121-28, N-(4-bromo-2-fluorophenyl)-7-(4-(dimethylamino)butoxy)-6-methoxy quinazolin-4-amine dihydrochloride]
15 (19.0) No. (%): Serious TEAE: Any (Phase 1, 450 mg (N=79))
1 (1.3) No. (%): Serious TEAE: Arrhythmia (Phase 1, 450 mg (N=79)) | Serious TEAE: Cardiac tamponade (Phase 1, 450 mg (N=79)) | Serious TEAE: Death (Phase 1, 450 mg (N=79)) | Serious TEAE: Hypertension (Phase 1, 450 mg (N=79)) | Serious TEAE: Intestinal obstruction (Phase 1, 450 mg (N=79)) | Serious TEAE: Malignant neoplasm progression (Phase 1, 450 mg (N=79)) | Serious TEAE: Multiple organ dysfunction syndrome (Phase 1, 450 mg (N=79)) | Serious TEAE: Pleural effusion (Phase 1, 450 mg (N=79)) | Serious TEAE: Pneumonitis (Phase 1, 450 mg (N=79)) | Serious TEAE: Rash (Phase 1, 450 mg (N=79)) | Serious TEAE: Rectal hemorrhage (Phase 1, 450 mg (N=79)) | Serious TEAE: Upper respiratory tract infection (Phase 1, 450 mg (N=79)) | Serious TRAE: Arrhythmia (Phase 1, 450 mg (N=79)) | Serious TRAE: Hypertension (Phase 1, 450 mg (N=79)) | Serious TRAE: Intestinal obstruction (Phase 1, 450 mg (N=79)) | Serious TRAE: Pneumonitis (Phase 1, 450 mg (N=79)) | Serious TRAE: Rash (Phase 1, 450 mg (N=79)) | Serious TRAE: Rectal hemorrhage (Phase 1, 450 mg (N=79)) | Serious TRAE: Upper respiratory tract infection (Phase 1, 450 mg (N=79))
17 (26.6) No. (%): Serious TEAE: Any (Phase 1, 600 mg (N=64))
2 (3.1) No. (%): Serious TEAE: ALT increased (Phase 1, 600 mg (N=64)) | Serious TEAE: AST increased (Phase 1, 600 mg (N=64))
2 (2.5) No. (%): Serious TEAE: Hemoptysis (Phase 1, 450 mg (N=79)) | Serious TEAE: Seizure (Phase 1, 450 mg (N=79)) | Serious TRAE: Hemoptysis (Phase 1, 450 mg (N=79))
1 (1.6) No. (%): Serious TEAE: Acute pancreatitis (Phase 1, 600 mg (N=64)) | Serious TEAE: Anal abscess (Phase 1, 600 mg (N=64)) | Serious TEAE: Blood bilirubin increased (Phase 1, 600 mg (N=64)) | Serious TEAE: Blood creatinine increased (Phase 1, 600 mg (N=64))
9 (11.4) No. (%): Serious TRAE: Any (Phase 1, 450 mg (N=79))
0 No. (%): Serious TEAE: Acute pancreatitis (Phase 1, 450 mg (N=79)) | Serious TEAE: Anal abscess (Phase 1, 450 mg (N=79)) | Serious TEAE: Aortic intramural hematoma (Phase 1, 450 mg (N=79)) | Serious TEAE: Blood bilirubin increased (Phase 1, 450 mg (N=79)) | Serious TEAE: Blood creatinine increased (Phase 1, 450 mg (N=79)) | Serious TEAE: COVID-19 (Phase 1, 450 mg (N=79)) | Serious TEAE: Coronary artery atherosclerosis (Phase 1, 450 mg (N=79)) | Serious TEAE: Diarrhea (Phase 1, 450 mg (N=79)) | Serious TEAE: Drug eruption (Phase 1, 450 mg (N=79)) | Serious TEAE: Dyspnea (Phase 1, 450 mg (N=79)) | Serious TEAE: Embolism (Phase 1, 450 mg (N=79)) | Serious TEAE: Erythema multiforme (Phase 1, 450 mg (N=79)) | Serious TEAE: Headache (Phase 1, 450 mg (N=79)) | Serious TEAE: Hydronephrosis (Phase 1, 450 mg (N=79)) | Serious TEAE: Hypoalbuminemia (Phase 1, 450 mg (N=79)) | Serious TEAE: Intra-abdominal fluid collection (Phase 1, 450 mg (N=79)) | Serious TEAE: Intracranial tumor hemorrhage (Phase 1, 450 mg (N=79)) | Serious TEAE: Liver injury (Phase 1, 450 mg (N=79)) | Serious TEAE: Lung adenocarcinoma (Phase 1, 450 mg (N=79)) | Serious TEAE: Nausea (Phase 1, 450 mg (N=79)) | Serious TEAE: Nephrolithiasis (Phase 1, 450 mg (N=79)) | Serious TEAE: Platelet counts decreased (Phase 1, 450 mg (N=79)) | Serious TEAE: Pneumonia (Phase 1, 450 mg (N=79)) | Serious TEAE: Prolonged QT interval (Phase 1, 450 mg (N=79)) | Serious TEAE: Pulmonary embolism (Phase 1, 450 mg (N=79)) | Serious TEAE: Pyrexia (Phase 1, 450 mg (N=79)) | Serious TEAE: Respiratory failure (Phase 1, 450 mg (N=79)) | Serious TEAE: Septic shock (Phase 1, 450 mg (N=79)) | Serious TEAE: Sudden cardiac arrest (Phase 1, 450 mg (N=79)) | Serious TEAE: Sudden death (Phase 1, 450 mg (N=79)) | Serious TEAE: Ventricular tachycardia (Phase 1, 450 mg (N=79)) | Serious TEAE: Vomiting (Phase 1, 450 mg (N=79)) | Serious TEAE: Weight loss (Phase 1, 450 mg (N=79)) | Serious TRAE: ALT increased (Phase 1, 450 mg (N=79)) | Serious TRAE: AST increased (Phase 1, 450 mg (N=79)) | Serious TRAE: Abdominal Pain (Phase 1, 450 mg (N=79)) | Serious TRAE: Abdominal distension (Phase 1, 450 mg (N=79)) | Serious TRAE: Acute cholecystitis (Phase 1, 450 mg (N=79)) | Serious TRAE: Acute pancreatitis (Phase 1, 450 mg (N=79)) | Serious TRAE: Anal abscess (Phase 1, 450 mg (N=79)) | Serious TRAE: Aortic intramural hematoma (Phase 1, 450 mg (N=79)) | Serious TRAE: Blood bilirubin increased (Phase 1, 450 mg (N=79)) | Serious TRAE: Blood creatinine increased (Phase 1, 450 mg (N=79)) | Serious TRAE: COVID-19 (Phase 1, 450 mg (N=79)) | Serious TRAE: Cardiac tamponade (Phase 1, 450 mg (N=79)) | Serious TRAE: Coronary artery atherosclerosis (Phase 1, 450 mg (N=79)) | Serious TRAE: Death (Phase 1, 450 mg (N=79)) | Serious TRAE: Diarrhea (Phase 1, 450 mg (N=79)) | Serious TRAE: Drug eruption (Phase 1, 450 mg (N=79)) | Serious TRAE: Dyspnea (Phase 1, 450 mg (N=79)) | Serious TRAE: Embolism (Phase 1, 450 mg (N=79)) | Serious TRAE: Erythema multiforme (Phase 1, 450 mg (N=79)) | Serious TRAE: Headache (Phase 1, 450 mg (N=79)) | Serious TRAE: Hydronephrosis (Phase 1, 450 mg (N=79)) | Serious TRAE: Hypoalbuminemia (Phase 1, 450 mg (N=79)) | Serious TRAE: Intra-abdominal fluid collection (Phase 1, 450 mg (N=79)) | Serious TRAE: Intracranial tumor hemorrhage (Phase 1, 450 mg (N=79)) | Serious TRAE: Liver injury (Phase 1, 450 mg (N=79)) | Serious TRAE: Lung adenocarcinoma (Phase 1, 450 mg (N=79)) | Serious TRAE: Malignant neoplasm progression (Phase 1, 450 mg (N=79)) | Serious TRAE: Multiple organ dysfunction syndrome (Phase 1, 450 mg (N=79)) | Serious TRAE: Nausea (Phase 1, 450 mg (N=79)) | Serious TRAE: Nephrolithiasis (Phase 1, 450 mg (N=79)) | Serious TRAE: Platelet counts decreased (Phase 1, 450 mg (N=79)) | Serious TRAE: Pleural effusion (Phase 1, 450 mg (N=79)) | Serious TRAE: Pneumonia (Phase 1, 450 mg (N=79)) | Serious TRAE: Prolonged QT interval (Phase 1, 450 mg (N=79)) | Serious TRAE: Pulmonary embolism (Phase 1, 450 mg (N=79)) | Serious TRAE: Pyrexia (Phase 1, 450 mg (N=79)) | Serious TRAE: Respiratory failure (Phase 1, 450 mg (N=79)) | Serious TRAE: Seizure (Phase 1, 450 mg (N=79)) | Serious TRAE: Septic shock (Phase 1, 450 mg (N=79)) | Serious TRAE: Sudden cardiac arrest (Phase 1, 450 mg (N=79)) | Serious TRAE: Sudden death (Phase 1, 450 mg (N=79)) | Serious TRAE: Ventricular tachycardia (Phase 1, 450 mg (N=79)) | Serious TRAE: Vomiting (Phase 1, 450 mg (N=79)) | Serious TRAE: Weight loss (Phase 1, 450 mg (N=79)) | Serious TEAE: Abdominal Pain (Phase 1, 600 mg (N=64)) | Serious TEAE: Abdominal distension (Phase 1, 600 mg (N=64)) | Serious TEAE: Acute cholecystitis (Phase 1, 600 mg (N=64)) | Serious TEAE: Aortic intramural hematoma (Phase 1, 600 mg (N=64)) | Serious TEAE: Arrhythmia (Phase 1, 600 mg (N=64)) | Serious TEAE: COVID-19 (Phase 1, 600 mg (N=64))

Source: PMC11868595, “Safety, pharmacokinetics and efficacy of HA121-28 in patients with advanced solid tumors and RET fusion-positive non-small-cell lung cancer: a multicenter, open-label, single-arm phase 1/2 trial” (Signal Transduction and Targeted Therapy, 2025)
